Values of other authors, collected in patent US20100273186A1, “SPLIT MUTANT HYDROLASE FUSION REPORTER AND USES THEREOF” (Promega Corporation, priority 2007, published 2010).

Test system: Photinus pyralis luciferase

reduction of activity on addition of cyclic AMP dependent protein kinase catalytic subunit (Waud et al.)	Substance	decrease of activity when phosphorylated (Sala-Newby et al.)
30%	LRRASLG	–
–	RRFS: Photinus pyralis luciferase mutant, V217R generating site RRFS (SEQ ID NO:11), Sala-Newby et al.	up to 80%
